Values joined by “and” are separate entries in the source; they are usually repeats but may differ in a detail not shown here. Equal entries are not always repeated.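 Dose response: 5 concentrations. Exposure: 48 h. Format: 96-well plates. Endpoint: linear interpolation; highest concentration if not reached. GI50: concentration for 50% inhibition of growth. Definition used: TGI = concentration required for complete inhibition of growth.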

For the first test, the system named is HCT-116 colon. Kind of test: NCI anticancer screen, dose series, 48 h.
As for `Cc1c(C(=O)CC(=O)C(=O)Nc2ccccc2C(F)(F)F)[n+](=O)c2ccccc2n1[O-]`, the TGI came out at 28.3 µM.
On the same count and under the same terms, the same measure for `C1=C2/CC[C@H](Sc3ccccc3)C2C2(CCCCC/1)OCCO2` (stereo partly drawn): 37.1 µM; for `O=C(CCc1nc(=S)[nH][nH]1)Nc1cc(Cl)c(Cl)cc1Cl`: above 100 µM; for `CN(C)C(=S)N=C(Nc1ccccc1)Nc1ccccc1`: above 100 µM.
Compound `CC1(C)C(=O)/C=C\C(=O)C(C)(C)C2=CC=C(O2)C(C)(C)C(=O)/C=C\C(=O)C(C)(C)C2=CC=C1O2` displayed a TGI above 100 µM.
On to `COc1ccccc1N1C(=O)C2c3[nH]c4ccccc4c3C3CCC(C(C)(C)C)CC3C2C1=O` (stereo not drawn), for which the TGI was above 100 µM.
The same measure, in the same setting: for `Cc1cc(NS(=O)(=O)c2ccc(Nc3c4ccccc4nc4c(C(=O)N5CCN(CCOS(C)(=O)=O)CC5)cccc34)cc2)no1` the value was above 100 µM; for `O=C(O)CCC(NC(=O)c1ccc(Nc2nc3ccccc3nc2-c2cccs2)cc1)C(=O)O` (stereo not drawn), above 100 µM.
In turn, `COc1cc2ccnc([C@@H](OC(=O)c3ccccc3)c3ccc(OC)c(OC)c3OC)c2cc1OC` displayed a TGI above 100 µM.
The compound `CCn1c(C)nn2c(=O)c3ccccc3nc2c1=O` displayed a TGI above 100 µM.
With `COC(=O)/C(C#N)=C1\NC(=O)c2ccccc21`, the TGI is above 100 µM.
Same read-out and setting: the same measure for `O=C(O)CCNCCCNCCC(=O)O`: above 100 µM.
Take `CC(=O)[CH-]C(=O)c1ccccc1.CC(=O)[CH-]C(=O)c1ccccc1.CN(C)c1ccc([O-])cc1.CN(C)c1ccc([O-])cc1.Cl.[Ti+4]`: the GI50 was 18.1 µM and the TGI was above 31.6 µM.
In turn, `NC1=NCCC1(c1ccccc1)c1ccccn1` (stereo not drawn) returned a TGI above 100 µM.
On to `CCCCCCCCCCCC(=O)OCCOCCOCCOCCOCCOCc1ccccc1`, for which the TGI is above 100 µM.
`CCCCCCCCCCCCCC(=O)OC(/C=C/C(C)C)C(O)C(O)C(OC)C(=O)NC1CCCCN(C)C1=O` (stereo not drawn): the GI50 was above 49 µM; the TGI is 5.46 µM and > 49 µM.
On to `CCOC(=O)CCC1(C(=O)OCC)CCCCC1=O` (stereo not drawn), for which the TGI was above 100 µM.
In turn, `COC(=O)c1ccccc1NC(=O)C(=O)Cc1nc2c3c(ccc2[nH]c1=O)C(=O)c1ccccc1C3=O` returned a TGI of 34.7 µM.
Same read-out and setting: the same measure for `CCOC(=O)C(C)(C)Oc1ccc2c(-c3ccccc3)cc(=O)oc2c1`: above 100 µM; for `CCCC1C(=O)CCc2c(OC)ccc(OC)c21` (stereo not drawn): above 100 µM; for `NC(=O)NO.O.O.O.O.O.O.O.O.O.O.O.[Ge].[Ge].[Ge].[Ge].[Ge].[O]=[Ge].[O]=[Ge].[O]=[Ge].[O]=[Ge].[O]=[Ge][OH]`: above 100 µM.
On the same count and under the same terms, the same measure for `O=C(Nc1nc2ccc([N+](=O)[O-])cc2s1)C(=O)C(C1OC(=O)c2ccccc21)[N+](=O)[O-]` (stereo not drawn): above 100 µM.
With `CCC[CH2][Sn]([CH2]CCC)([S]c1cccc2cccnc12)[S]c1cccc2cccnc12`, the GI50 was 0.155 µM and the TGI turned out to be 0.303 µM.

The next test deals with SF-268 CNS. Kind of test: NCI anticancer screen, dose series, 48 h.
As for `CCN1CCN(Cc2ccc(NC(=O)c3cccc(C#Cc4cccc5[nH]nc(N)c45)c3)cc2C(F)(F)F)CC1`, the GI50 is 0.62 µM and the TGI was found to be 2.01 µM.
With `Cc1c(C(=O)CC(=O)C(=O)Nc2ccccc2C(F)(F)F)[n+](=O)c2ccccc2n1[O-]`, the TGI was 69 µM.
As for `Cc1cc(N(CCC#N)CCC#N)ccc1N=Nc1ccc(S(N)(=O)=O)cc1`, the TGI was above 100 µM.
Same read-out and setting: for `Cc1nc2c(ccc3ncccc32)[nH]1` the value was above 100 µM; for `C1=C2/CC[C@H](Sc3ccccc3)C2C2(CCCCC/1)OCCO2` (stereo partly drawn), above 100 µM; for `O=C(CCc1nc(=S)[nH][nH]1)Nc1cc(Cl)c(Cl)cc1Cl`, above 100 µM.
Compound `CN(C)C(=S)N=C(Nc1ccccc1)Nc1ccccc1` came in with a TGI above 100 µM.
Turning to `Nc1ccccc1S(=O)(=O)N(CC(=O)O)c1ccccc1`, the TGI is above 100 µM.
With `CC1(C)C(=O)/C=C\C(=O)C(C)(C)C2=CC=C(O2)C(C)(C)C(=O)/C=C\C(=O)C(C)(C)C2=CC=C1O2`, the TGI is above 100 µM.
Regarding `COc1ccccc1N1C(=O)C2c3[nH]c4ccccc4c3C3CCC(C(C)(C)C)CC3C2C1=O` (stereo not drawn), the TGI was above 100 µM.
Compound `Cc1cc(NS(=O)(=O)c2ccc(Nc3c4ccccc4nc4c(C(=O)N5CCN(CCOS(C)(=O)=O)CC5)cccc34)cc2)no1` registered a TGI above 100 µM.
Still for that read-out and setting: for `O=C(O)CCC(NC(=O)c1ccc(Nc2nc3ccccc3nc2-c2cccs2)cc1)C(=O)O` (stereo not drawn) the value was above 100 µM; for `COc1cc2ccnc([C@@H](OC(=O)c3ccccc3)c3ccc(OC)c(OC)c3OC)c2cc1OC`, above 100 µM.
Take `COc1cnc2c(c1)C(=O)c1c-2n(CCCN2CCOCC2)c(=O)c2cc(F)ccc12`: the GI50 was 0.265 µM and the TGI was above 100 µM.
For the compound `COC(=O)/C(C#N)=C1\NC(=O)c2ccccc21`, the TGI was above 100 µM.
`O=C(O)CCNCCCNCCC(=O)O`: the TGI is above 100 µM.
Consider `CC(=O)[CH-]C(=O)c1ccccc1.CC(=O)[CH-]C(=O)c1ccccc1.CN(C)c1ccc([O-])cc1.CN(C)c1ccc([O-])cc1.Cl.[Ti+4]`, for which the GI50 was above 31.6 µM and the TGI is above 31.6 µM.
Turning to `NC1=NCCC1(c1ccccc1)c1ccccn1` (stereo not drawn), the TGI was above 100 µM.
In turn, `CCCCCCCCCCCC(=O)OCCOCCOCCOCCOCCOCc1ccccc1` yielded a TGI above 100 µM.
Still for that read-out and setting: for `CCCCCCCCCCCCCC(=O)OC(/C=C/C(C)C)C(O)C(O)C(OC)C(=O)NC1CCCCN(C)C1=O` (stereo not drawn) the value was 8.63 µM and > 49 µM.
`CCOC(=O)CCC1(C(=O)OCC)CCCCC1=O` (stereo not drawn) came in with a TGI above 100 µM.
`COC(=O)c1ccccc1NC(=O)C(=O)Cc1nc2c3c(ccc2[nH]c1=O)C(=O)c1ccccc1C3=O` gave a TGI of 67.9 µM.
`CCOC(=O)C(C)(C)Oc1ccc2c(-c3ccccc3)cc(=O)oc2c1` showed a TGI above 100 µM.
Same read-out and setting: for `CCCC1C(=O)CCc2c(OC)ccc(OC)c21` (stereo not drawn) the value was above 100 µM; for `NC(=O)NO.O.O.O.O.O.O.O.O.O.O.O.[Ge].[Ge].[Ge].[Ge].[Ge].[O]=[Ge].[O]=[Ge].[O]=[Ge].[O]=[Ge].[O]=[Ge][OH]`, above 100 µM.
On the same count and under the same terms, for `O=C(Nc1nc2ccc([N+](=O)[O-])cc2s1)C(=O)C(C1OC(=O)c2ccccc21)[N+](=O)[O-]` (stereo not drawn) the value was above 100 µM.

Another test has as its system OVCAR-3 ovarian. The test can be described thus: NCI anticancer screen, dose series, 48 h.
Take `CCN1CCN(Cc2ccc(NC(=O)c3cccc(C#Cc4cccc5[nH]nc(N)c45)c3)cc2C(F)(F)F)CC1`: the GI50 is 0.615 µM and the TGI amounted to 2.17 µM.
As to `Cc1c(C(=O)CC(=O)C(=O)Nc2ccccc2C(F)(F)F)[n+](=O)c2ccccc2n1[O-]`, the TGI was determined as 8.37 µM.
Same read-out and setting: for `Cc1cc(N(CCC#N)CCC#N)ccc1N=Nc1ccc(S(N)(=O)=O)cc1` the value was above 100 µM; for `Cc1nc2c(ccc3ncccc32)[nH]1`, above 100 µM.
Same read-out and setting: for `C1=C2/CC[C@H](Sc3ccccc3)C2C2(CCCCC/1)OCCO2` (stereo partly drawn) the value was 72.1 µM.
Same read-out and setting: the same measure for `O=C(CCc1nc(=S)[nH][nH]1)Nc1cc(Cl)c(Cl)cc1Cl`: above 100 µM; for `CN(C)C(=S)N=C(Nc1ccccc1)Nc1ccccc1`: above 100 µM.

Source of the values: PubChem BioAssay (NCI).
